Counter-ions that a name gives are not always drawn.
Assays:
[1] = system: substance P-induced scratching behavior; assay: Effect of nicotinic acetylcholine receptor antagonist (mecamylamine hydrochloride) on inhibition of substance P-induced scratching behavior by varenicline; format: in vivo, mouse; settings: varenicline tartrate 3 mg/kg + mecamylamine hydrochloride 3 mg/kg, i.p., 60 minutes before; substance P 250 nmol/site
Procedure: The induction and measurement of the number of substance P-induced scratching behavior were carried out by the same method as described in Example 1.
Varenicline tartrate (0.3 mg/mL, Tocris Bioscience), mecamylamine hydrochloride (0.3 mg/mL, Tocris Bioscience), a mixed solution of varenicline tartrate and mecamylamine hydrochloride (both 0.3 mg/mL), or PBS which was a solvent thereof, was intraperitoneally administered in an amount of 10 mL/kg 60 minutes before the start of the measurement of the number of scratching behavior.
With regard to statistical processing, Student's t-test was performed when variances were homogeneity by F-test, and Aspin-Welch test was performed when variances were heterogeneity. A level of significance was set to 5% (two-tailed).
The vertical axis indicates the number of scratching behavior occurred for 15 minutes (mean±standard error, n=5 to 8). […]

[2] = system: substance P-induced scratching behavior; assay: Inhibitory effect on substance P-induced scratching behavior in mice (MicroAct automatic detection); format: in vivo, mouse; settings: substance P 250 nmol/site; for Number of scratching behavior (means ± standard error): i.p., counted for 15 minutes
Text: Substance P-induced scratching behavior in mice which is an intractable pruritus model was induced by the method described in a known document (Togashi et al., European Journal of Pharmacology, 2002, Vol. 435, p. 259 and the like). Further, evaluation of the scratching behavior was objectively carried out by automatic detection using MicroAct (NeuroScience, Inc.) based on the method described in a known document (Hashimoto et al., Allergology International, 2004, Vol. 53, p. 349).
More particularly, at least five days before the evaluation of drug effect, neodymium magnets (diameter: 1 mm, length: 3 mm) coated with Parafilm were subcutaneously inserted into the insteps of both hind limbs of 5 to 7 week-old male ICR mouse (Japan SLC, Inc.) under isoflurane anesthesia. One or two days before the day of the evaluation of drug effect, the hair of the rostral part of the back of the mouse was shaved with a hair clipper under isoflurane anesthesia. At least one hour before the start of the measurement of the number of scratching behavior, each mouse (6 to 8 weeks old) was individually placed in a chamber for measurement (diameter: 11 cm, height: 18 cm) for acclimation. After the acclimation, substance P (5 mmol/L) or phosphate-buffered saline (hereinafter referred to as PBS) as a solvent thereof was intradermally administered (0.05 mL/site) into the rostral part of the back, and the measurement of the number of scratching behavior was started immediately after the administration. The number of scratching behavior was recorded by amplifying electric current induced by the movement of the magnets inserted in the hind limbs in a round coil surrounding the chamber for measurement. The measurement was carried out under unattended environment, and the evaluation of the drug effect was carried out by using the number of scratching behavior occurred for 15 minutes after the start of the measurement as an index.
A test compound or a solvent thereof was administered in an amount of 10 mL/kg 30 to 60 minutes before the start of the measurement of the number of scratching behavior. Varenicline tartrate (Tocris Bioscience) was dissolved in PBS and intraperitoneally administered in a dose of 1, 3 or 10 mg/kg 60 minutes before the start of the measurement of the number of scratching behavior. N-(1-azabicyclo[2.2.2]oct-3(R)-yl)-4-chlorobenzamide hydrochloride (PNU-282987) hydrate (Sigma-Aldrich) was dissolved in PBS and intraperitoneally administered in a dose of 0.3 or 1 mg/kg 45 minutes before the start of the measurement of the number of scratching behavior. The compound of Reference Example 1 was dissolved in PBS and intraperitoneally administered in a dose of 0.1 or 0.3 mg/kg 30 minutes before the start of the measurement of the number of scratching behavior. The compound of Reference Example 2 was dissolved in PBS and intraperitoneally administered in a dose of 1, 3, or 10 mg/kg 45 minutes before the start of the measurement of the number of scratching behavior. The compound of Reference Example 3 was dissolved in distilled water and orally administered in a dose of 1, 3, or 10 mg/kg 30 minutes before the start of the measurement of the number of scratching behavior. The compound of Reference Example 4 was dissolved in PBS and intraperitoneally administered in a dose of 1, 3, or 10 mg/kg 45 minutes before the start of the measurement of the number of scratching behavior. The compound of Reference Example 5 was dissolved in PBS and intraperitoneally administered in a dose of 1, 3, or 10 mg/kg 30 minutes before the start of the measurement of the number of scratching behavior. The compound of Reference Example 6 was dissolved in PBS and intraperitoneally administered in a dose of 1, 3, or 10 mg/kg, 30 minutes before the start of the measurement of the number of scratching behavior. […]

Structure (SMILES): c1cnc2cc3c(cc2n1)C1CNCC3C1 [Varenicline tartrate, 7,8,9,10-tetrahydro-6H-6,10-methanopyrazino[2,3-h][3]benzazepine, reference compound]
- Effect of inhibiting the substance P-induced scratching behavior when used in combination with mecamylamine hydrochloride [1]: completely disappeared
- inhibition at 1 mg/kg ([2]; Mus musculus, ip, 1 mg/kg, read-out: Inhibition rate): 15%
- inhibition at 3 mg/kg ([2]; Mus musculus, ip, 3 mg/kg, read-out: Inhibition rate): 64%
- inhibition at 10 mg/kg ([2]; Mus musculus, ip, 10 mg/kg, read-out: Inhibition rate): 101%
- Number of scratching behavior (means ± standard error) ([2]; 1 mg/kg): 103 ± 19
- Number of scratching behavior (means ± standard error) ([2]; 3 mg/kg): 54 ± 7
- Number of scratching behavior (means ± standard error) ([2]; 10 mg/kg): 17 ± 3

Reference: patent US20140128606A1, “ANTIPRURITIC AGENT” (Toray Industries, Inc., priority 2011, published 2014)
